Assay: Accumulation of intravascularly injected oncolytic adenovirus in EL4 tumours (hexon staining, qPCR of viral DNA)
Format: in vivo, SCID-beige female mice
Conditions: 1 μg TNF; tumours 100 mm^3; versus vehicle; FIG. 1B
Method: All adenoviruses were grown in 293 cells, and purified by double banding in CsCl gradients with Benzonase treatment after the first banding. Viral particle (VP) number was determined by measuring DNA content, using a PicoGreen assay (Invitrogen, Carlsbad, Calif.) (Murakami and McCaman, 1999, Anal Biochem; 274(2):283-8).
EL4 cells (2×10^6) were injected subcutaneously and allowed to form tumours in the left flank of 4- to 6-week-old SCID-beige female mice. Evans Blue was administered intravenously to compare permeability in 1 μg TNFα-treated animals versus controls. Oncolytic adenovirus was injected intravascularly when tumours were 100 mm^3 and relative distribution was assessed by hexon staining and quantitative polymerase chain reaction measurement of viral DNA.
To assess distribution of adenovirus in 1 μg TNF-treated animals versus controls, oncolytic adenovirus was injected intravascularly when tumours were 100 mm^3 and the relative distribution was assessed by hexon staining and quantitative polymerase chain reaction measurement of viral DNA. Three controls were also used.
Virus accumulation in the tumour was compared to that in the liver and in the spleen.

Molecule | increase in accumulation (uptake) of intravenously administered adenovirus particles in tumours
COc1cc(/C=C\c2ccc(OC)c(OP(=O)(O)O)c2OP(=O)(O)O)cc(OC)c1OC [combrestatin (OXI4503), combrestatin] | increases were small compared to TNF
Angiotensin II (DRVYIHPF; Angiotensin-2; UniProt P01019 25-32, looked up) [control reported to increase tumour vessel permeability] | increases were small compared to TNF

Source: patent US11744877B2, “Method for permeabilizing tumor vasculature using a tumor vasculature permeabilizing molecule to improve access of a therapeutic or diagnostic agent to a tumor” (OXFORD UNIVERSITY INNOVATION LIMITED, priority 2010, dated 2023)
